In one assay the test system is P388 Leukemia. Kind of assay: Antitumor activity against P388 leukemia in mice (increased life span). It is filed as in vivo, CDF1 mice. Conditions: Mus musculus, P388, ip, 720 h, read-out: ILS (increased life span). As to the method: Ascites were collected from the abdominal cavity of P388 ascites tumor-bearing cancer mice (DBA/2) on the 7th day after transplantation. A number of P388 cells in the ascites was counted, and a tumor cell floating liquid of 5×10^6 cells/ml was prepared using a physiological saline solution. Then, 0.2 ml of the solution containing 1×10^6 cells was transplanted into the abdominal cavity of CDF1 mice having a body weight of from 20 to 25 g.
The effect of the test compound was determined in terms of the ratio of average survival days of the group administered with the test compound to average survival days of the control group (non-medicated group) (i.e., an increased life span, ILS%).
In general, ILS refers to the gain in survival time of treated over control animals, in per cent. With `COC1(OC2C=C(C)CCC3(C(C)(O)C(=O)SCc4oc(=O)oc4C)CC(=O)N(C(C)c4nc(cs4)C=CC=CC2=O)[S+]3[O-])CC[S+]([O-])CC1` (stereo not drawn) [Compound 128], the ILS at 4 mg/kg was 84%.
For the compound `C/C1=C\C(O)C(=O)/C=C/C=C\c2csc(n2)C(C)N2C(=O)CC(C(C)(O)C(=O)SCOC(=O)C(C)(C)C)(CC1)[S+]2[O-]` (stereo not drawn) [Compound 34], the increase in life span (ILS) at 2 mg/kg was 48%.
Turning to `C/C1=C\C(O)C(=O)/C=C/C=C\c2csc(n2)C(C)N2C(=O)CC(C(C)(O)C(=O)SCc3oc(=O)oc3C)(CC1)[S+]2[O-]` (stereo not drawn) [Compound 35], the ILS at 2 mg/kg amounted to 65%.
For `CC1=CC(OC(=O)[C@H](C)NC(=O)OCc2ccccc2)C(=O)C=CC=Cc2csc(n2)C(C)N2C(=O)CC(C(C)(O)C(=O)SCc3oc(=O)oc3C)(CC1)[S+]2[O-]` (stereo partly drawn) [Compound 163], the ILS at 2 mg/kg is 46%.
Take `C/C1=C\C(OC(=O)C2CCCCC2)C(=O)/C=C/C=C\c2csc(n2)C(C)N2C(=O)CC(C(C)(O)C(=O)SCc3oc(=O)oc3C)(CC1)[S+]2[O-]` (stereo not drawn) [Compound 48]: the ILS at 8 mg/kg is 47%.
Regarding `C/C1=C\C(O)C(=NOCc2ccccc2)/C=C/C=C\c2csc(n2)C(C)N2C(=O)CC(C(C)(O)C(=O)SCc3oc(=O)oc3C)(CC1)[S+]2[O-]` (single isomer, unassigned) [Compound 73], the ILS at 4 mg/kg was 43%.
Take `C/C1=C\C(OC(=O)OCC2c3ccccc3-c3ccccc32)C(=O)/C=C/C=C\c2csc(n2)C(C)N2C(=O)CC(C(C)(O)C(=O)SCc3oc(=O)oc3C)(CC1)[S+]2[O-]` (stereo not drawn) [Compound 57]: the increase in life span (ILS) at 4 mg/kg came out at 53%.

The same assay, now with this note: Mus musculus, P388, ip, 720 h; 1.0 mg/kg, single i.p. 24 hours after transplantation, CDF1 mice, 30 days observation; read-out: ILS (increased life span).
`C/C1=C\C(OC(=O)OCc2ccccc2)C(=O)/C=C/C=C\c2csc(n2)C(C)NC(=O)CC2(CC1)[S+]([O-])SC(=O)C2(C)O` (stereo not drawn) [Compound 14]: the ILS at 1 mg/kg is 42%.
With `COC1(OC2C=C(C)CCC3(C(C)(O)C(=O)SCc4oc(=O)oc4C)CC(=O)N(C(C)c4nc(cs4)C=CC=CC2=O)[S+]3[O-])CCS(=O)(=O)CC1` (stereo not drawn) [Compound 129], the ILS at 1 mg/kg was found to be 64%.

The assay is the same for the next values; noted with them: Mus musculus, P388, ip, 720 h; 2.0 mg/kg, single i.p. 24 hours after transplantation, CDF1 mice, 30 days observation; read-out: ILS (increased life span).
For the compound `CC1=CC(OC(=O)Cc2cccnc2)C(=O)C=CC=Cc2csc(n2)C(C)N2C(=O)CC(C(C)(O)C(=O)SCc3oc(=O)oc3C)(CC1)[S+]2[O-]` (stereo not drawn) [Compound 147], the increase in lifespan (ILS) at 2 mg/kg worked out at 60%.
In the case of `CC1=CC(OC(=O)c2cccnc2)C(=O)C=CC=Cc2csc(n2)C(C)N2C(=O)CC(C(C)(O)C(=O)SCc3oc(=O)oc3C)(CC1)[S+]2[O-]` (stereo not drawn) [Compound 144], the ILS at 2 mg/kg is 49%.
Turning to `CC1=CC(OC(=O)CO)C(=O)C=CC=Cc2csc(n2)C(C)N2C(=O)CC(C(C)(O)C(=O)SCc3oc(=O)oc3C)(CC1)[S+]2[O-]` (stereo not drawn) [Compound 154], the ILS at 2 mg/kg was found to be 48%.
Same read-out and setting: then `C/C1=C\C(OC(=O)OCC(C)C)C(=O)/C=C/C=C\c2csc(n2)C(C)NC(=O)CC2(CC1)[S+]([O-])SC(=O)C2(C)O` (stereo not drawn) [Compound 11], with 50%.
As for `C/C1=C\C(OC(=O)c2cnc3ccccc3n2)C(=O)/C=C/C=C\c2csc(n2)C(C)NC(=O)CC2(CC1)[S+]([O-])SC(=O)C2(C)O` (stereo not drawn) [Compound 9], the increase in lifespan (ILS) at 2 mg/kg worked out at 44%.
Same read-out and setting: under `CCOC(=O)OC1/C=C(\C)CCC2(C(C)(O)C(=O)SCc3oc(=O)oc3C)CC(=O)N(C(C)c3nc(cs3)/C=C\C=C\C1=O)[S+]2[O-]` (stereo not drawn) [Compound 53] stands 43%; under `CCOC(=O)OC1/C=C(\C)CCC2(C(C)(O)C(=O)SCOC(=O)C(C)(C)C)CC(=O)N(C(C)c3nc(cs3)/C=C\C=C\C1=O)[S+]2[O-]` (stereo not drawn) [Compound 41], 40%.
As to `C/C1=C\C(OC(=O)CNC(=O)OC(C)(C)C)C(=O)/C=C/C=C\c2csc(n2)C(C)NC(=O)CC2(CC1)[S+]([O-])SC(=O)C2(C)O` (stereo not drawn) [Compound 96], the increase in life span (ILS) at 2 mg/kg was determined as 46%.

Still in this assay, the particulars now being: Mus musculus, P388, ip, 720 h; 4.0 mg/kg, single i.p. 24 hours after transplantation, CDF1 mice, 30 days observation; read-out: ILS (increased life span).
In the case of `CC1=CC(OC(=O)C2CCC(=O)N2)C(=O)C=CC=Cc2csc(n2)C(C)N2C(=O)CC(C(C)(O)C(=O)SCc3oc(=O)oc3C)(CC1)[S+]2[O-]` (stereo not drawn) [Compound 149], the increase in lifespan (ILS) at 4 mg/kg turned out to be 55%.
`CC(=O)NCC(=O)OC1C=C(C)CCC2(C(C)(O)C(=O)SCc3oc(=O)oc3C)CC(=O)N(C(C)c3nc(cs3)C=CC=CC1=O)[S+]2[O-]` (stereo not drawn) [Compound 160]: the ILS at 4 mg/kg worked out at 62%.
For `C/C1=C\C(OC(=O)CN(C)C(=O)OCc2ccccc2)C(=O)/C=C/C=C\c2csc(n2)C(C)NC(=O)CC2(CC1)[S+]([O-])SC(=O)C2(C)O` (stereo not drawn) [Compound 101], the increase in lifespan (ILS) at 4 mg/kg amounted to 48%.
As to `C/C1=C\C(OC(=O)CCNC(=O)OCc2ccccc2)C(=O)/C=C/C=C\c2csc(n2)C(C)NC(=O)CC2(CC1)[S+]([O-])SC(=O)C2(C)O` (stereo not drawn) [Compound 105], the ILS at 4 mg/kg turned out to be 53%.
In the case of `CC1=CC(OC(=O)CN(C)C(=O)OC(C)(C)C)C(=O)C=CC=Cc2csc(n2)C(C)N2C(=O)CC(C(C)(O)C(=O)SCc3oc(=O)oc3C)(CC1)[S+]2[O-]` (stereo not drawn) [Compound 161], the increase in lifespan (ILS) at 4 mg/kg was 65%.
Still for that read-out and setting: under `C/C1=C\C(OC(=O)[C@H](C)NC(=O)OC(C)(C)C)C(=O)/C=C/C=C\c2csc(n2)C(C)NC(=O)CC2(CC1)[S+]([O-])SC(=O)C2(C)O` (stereo partly drawn) [Compound 102] stands 49%.
Consider `CC1=CC(OC(=O)CNC(=O)[C@H](C)NC(=O)OCc2ccccc2)C(=O)C=CC=Cc2csc(n2)C(C)N2C(=O)CC(C(C)(O)C(=O)SCc3oc(=O)oc3C)(CC1)[S+]2[O-]` (stereo partly drawn) [Compound 168], for which the ILS at 4 mg/kg is 58%.

Staying with this assay, now noted: Mus musculus, P388, ip, 720 h; 8.0 mg/kg, single i.p. 24 hours after transplantation, CDF1 mice, 30 days observation; read-out: ILS (increased life span).
With `COC1(OC2/C=C(\C)CCC3(CC(=O)NC(C)c4nc(cs4)/C=C\C=C\C2=O)[S+]([O-])SC(=O)C3(C)O)CCCCC1` (stereo not drawn) [Compound 91], the ILS at 8 mg/kg turned out to be 48%.
On to `CC1=CC(OC(=O)[C@@H]2CCCN2C(=O)OC(C)(C)C)C(=O)C=CC=Cc2csc(n2)C(C)N2C(=O)CC(C(C)(O)C(=O)SCc3oc(=O)oc3C)(CC1)[S+]2[O-]` (stereo partly drawn) [Compound 148], for which the ILS at 8 mg/kg came out at 49%.
On to `CC1=CC(OC(=O)CNC(=O)CNC(=O)OCc2ccccc2)C(=O)C=CC=Cc2csc(n2)C(C)N2C(=O)CC(C(C)(O)C(=O)SCc3oc(=O)oc3C)(CC1)[S+]2[O-]` (stereo not drawn) [Compound 166], for which the increase in life span (ILS) at 8 mg/kg is 64%.
Take `C/C1=C\C(OC(=O)CNC(=O)[C@H](C)NC(=O)OCc2ccccc2)C(=O)/C=C/C=C\c2csc(n2)C(C)NC(=O)CC2(CC1)[S+]([O-])SC(=O)C2(C)O` (stereo partly drawn) [Compound 110]: the increase in life span (ILS) at 8 mg/kg was determined as 58%.
On to `C/C1=C\C(OC(=O)CNC(=O)C(CC(C)C)NC(=O)OCc2ccccc2)C(=O)/C=C/C=C\c2csc(n2)C(C)NC(=O)CC2(CC1)[S+]([O-])SC(=O)C2(C)O` (stereo not drawn) [Compound 115], for which the increase in lifespan (ILS) at 8 mg/kg was 67%.
Turning to `CC1=CC(OC(=O)CN(C)C(=O)OCc2ccccc2)C(=O)C=CC=Cc2csc(n2)C(C)N2C(=O)CC(C(C)(O)C(=O)SCc3oc(=O)oc3C)(CC1)[S+]2[O-]` (stereo not drawn) [Compound 162], the ILS at 8 mg/kg came out at 57%.
For the compound `CC1=CC(OC(=O)CNC(=O)OCc2ccccc2)C(=O)C=CC=Cc2csc(n2)C(C)N2C(=O)CC(C(C)(O)C(=O)SCc3oc(=O)oc3C)(CC1)[S+]2[O-]` (stereo not drawn) [Compound 157], the ILS at 8 mg/kg came out at 98%.
Still for that read-out and setting: under `COC1(OC2C=C(C)CCC3(C(C)(O)C(=O)SCc4oc(=O)oc4C)CC(=O)N(C(C)c4nc(cs4)C=CC=CC2=O)[S+]3[O-])CCN(c2ccccc2)CC1` (stereo not drawn) [Compound 131] stands 60%.
Regarding `CC1=CC(OC(=O)CNC(=O)C(CC(C)C)NC(=O)OCc2ccccc2)C(=O)C=CC=Cc2csc(n2)C(C)N2C(=O)CC(C(C)(O)C(=O)SCc3oc(=O)oc3C)(CC1)[S+]2[O-]` (stereo not drawn) [Compound 173], the ILS at 8 mg/kg was 64%.
With `C/C1=C\C(OC(=O)CNC(=O)CCNC(=O)OC(C)(C)C)C(=O)/C=C/C=C\c2csc(n2)C(C)NC(=O)CC2(CC1)[S+]([O-])SC(=O)C2(C)O` (stereo not drawn) [Compound 112], the ILS at 8 mg/kg turned out to be 67%.
As for `CC1=CC(OC(=O)CNC=O)C(=O)C=CC=Cc2csc(n2)C(C)N2C(=O)CC(C(C)(O)C(=O)SCc3oc(=O)oc3C)(CC1)[S+]2[O-]` (stereo not drawn) [Compound 159], the ILS at 8 mg/kg amounted to 50%.
For `COC1(OC2/C=C(\C)CCC3(CC(=O)NC(C)c4nc(cs4)/C=C\C=C\C2=O)[S+]([O-])SC(=O)C3(C)O)CCSCC1` (stereo not drawn) [Compound 92], the increase in life span (ILS) at 8 mg/kg came to 48%.

The same assay, now with this note: Mus musculus, P388, ip, 720 h; 16 mg/kg, single i.p. 24 hours after transplantation, CDF1 mice, 30 days observation.
Regarding `C/C1=C\C(OC(=O)CCNC(=O)CCNC(=O)OCc2ccccc2)C(=O)/C=C/C=C\c2csc(n2)C(C)NC(=O)CC2(CC1)[S+]([O-])SC(=O)C2(C)O` (stereo not drawn) [Compound 119], the ILS at 16 mg/kg was 63%.
`CC1=CC(OC(=O)CN(C)C(=O)CCNC(=O)OCc2ccccc2)C(=O)C=CC=Cc2csc(n2)C(C)N2C(=O)CC(C(C)(O)C(=O)SCc3oc(=O)oc3C)(CC1)[S+]2[O-]` (stereo not drawn) [Compound 175] had an ILS at 16 mg/kg of 65%.
`C/C1=C\C(OC(=O)CCNC(=O)CNC(=O)OCc2ccccc2)C(=O)/C=C/C=C\c2csc(n2)C(C)NC(=O)CC2(CC1)[S+]([O-])SC(=O)C2(C)O` (stereo not drawn) [Compound 118] yielded an ILS at 16 mg/kg of 71%.
Consider `CC1=CC(OC(=O)CNC(=O)CCNC(=O)OCc2ccccc2)C(=O)C=CC=Cc2csc(n2)C(C)N2C(=O)CC(C(C)(O)C(=O)SCc3oc(=O)oc3C)(CC1)[S+]2[O-]` (stereo not drawn) [Compound 169], for which the increase in lifespan (ILS) at 16 mg/kg came out at 91%.
Still for that read-out and setting: under `CC1=CC(OC(=O)CNC(=O)CCCNC(=O)OCc2ccccc2)C(=O)C=CC=Cc2csc(n2)C(C)N2C(=O)CC(C(C)(O)C(=O)SCc3oc(=O)oc3C)(CC1)[S+]2[O-]` (stereo not drawn) [Compound 171] stands 63%; under `C/C1=C\C(OC(=O)CNC(=O)CCCNC(=O)OCc2ccccc2)C(=O)/C=C/C=C\c2csc(n2)C(C)NC(=O)CC2(CC1)[S+]([O-])SC(=O)C2(C)O` (stereo not drawn) [Compound 113], 58%.

The record behind these values is patent publication US5733924A, “DC 107 derivatives and treatment methods” (Kyowa Hakko Kogyo Co., Ltd., priority 1995, dated 1998).
